“Also recorded” adds a separate entry of the source. Like-named read-outs stand apart in the source and are kept apart here.
What was measured:
[1] = test system: embryonic kidneys; assay: Embryonic kidney organ culture model (8-Br-cAMP-induced cysts); format: cell-based, mouse; conditions: for cyst formation in embryonic kidneys (in words): 100 μM 8-Br-cAMP, 4 days; for kidney length after 4 days in culture: absence of 8-Br-cAMP
Source text: An embryonic kidney organ culture model was used to further evaluate compounds T08 and G07. Embryonic kidney culture models permit organotypic growth and differentiation of renal tissue in defined media without the confounding effects of circulating hormones and glomerular filtration (see, e.g., Magenheimer et al., J Am Soc Nephrol 17: 3424-37, 2006; and Gupta et al., Kidney Int 63: 365-376, 2003). In addition, the early mouse kidney tubule in this model has an intrinsic capacity to secrete fluid in response to cAMP by a CFTR-dependent mechanism (Magenheimer et al.), allowing the evaluation of CFTR inhibitors in particular.
Mouse embryos were obtained at embryonic day 13.5 (E13.5). Metanephroi were dissected and placed on transparent Falcon […] porous cell culture inserts. To the culture inserts was added DMEM/Ham's F-12 nutrient medium supplemented with 2 mM L-glutamine, 10 mM HEPES, 5 μg/ml insulin, 5 μg/ml transferrin, 2.8 nM selenium, 25 ng/ml prostaglandin E, 32 pg/ml T3, 250 U/ml penicillin and 250 μg/ml streptomycin. Kidneys were maintained in a 37° C. humidified CO2 incubator, and were cultured for 4 days in the absence or presence of 100 μM 8-Br-cAMP. Culture medium containing 100 μM 8-Br-cAMP, with or without CFTR inhibitors, was replaced (in the lower chamber) every 12 hours.
Kidneys were photographed using a Nikon inverted microscope (Nikon TE 2000-S) equipped with 2× objective lens, 520 nm bandpass filter, and high-resolution PixeLINK color CCD camera. […] Cyst sizes in micrographs of metanephroi were determined using MATLAB 7.0 software. A masking procedure was used to highlight all pixels of similar intensity within each cyst. Fractional cyst area was calculated as total cyst area divided by total kidney area. Cysts with diameters >50 μm were included in the analysis. Image acquisition and analysis was done without knowledge of treatment condition.

[2] = target: T1, CFTR (Canis lupus familiaris, UniProt Q5U820); assay: Short-circuit current measurements in MDCK cells; format: cell-based, Canine; conditions: for CFTR expression, short-circuit current after incubation (in words): 10 μM, 1 or 48 hour incubation, washout 1 hour; for IC50: after CFTR stimulation by forskolin, read-out: IC50, inhibition of short-circuit current in MDCK cells
T1 construct: MDCK cells, which endogenously express CFTR; endogenous in cells; host or cells: MDCK cells
Description: CFTR inhibition potency was confirmed in MDCK cells by short-circuit current analysis. Snapwell inserts containing MDCK cells (transepithelial resistance 1000-2000 Ohms) were mounted in a standard Using chamber system. The basolateral membrane was permeabilized with 250 μg/ml amphotericin B. The hemichambers were filled with 5 mL of 65 mM NaCl, 65 mM Na-gluconate, 2.7 mM KCl, 1.5 mM KH2PO4, 1 mM CaCl2, 0.5 mM MgCl2, Na-Hepes and 10 mM glucose (apical), and 130 mM NaCl, 2.7 mM KCl, 1.5 mM KH2PO4, 1 mM CaCl2, 0.5 mM MgCl2, Na-Hepes and 10 mM glucose (basolateral) (pH 7.3). Short-circuit current was recorded continuously using a DVC-1000 voltage clamp (World Precision Instruments, Sarasota Fla.) with Ag/AgCl electrodes and 1 M KCl agar bridges.
In some experiments, MDCK cells in Snapwell inserts were cultured in medium containing 10 μM T08 or G07 for 1 or 48 hours. Compounds were washed out with medium for 1 hour before short-circuit current measurements.

[3] = target: human wildtype CFTR (Homo sapiens, UniProt P13569); assay: Short-circuit current measurements, apical chloride current in FRT cells; format: cell-based; design: expressed in transfected cells; host or cells: FRT (Fisher rat thyroid) cells
Description: Short-circuit current measurements. FRT cells (stably expressing human wildtype CFTR) were cultured on [sequence] filters with 1 cm^2 surface area (Corning-Costar) to resistance >1,000 Ω·cm^2 as described (see, e.g., Ma et al., J. Clin. Invest. 110:1651-1658 ((2002)); Sonawane et al., FASEB J. 20:130-132 (2006)). Filters were mounted in an Easymount Chamber System (Physiologic Instruments, San Diego). For apical current measurements, the basolateral hemichamber contained (in mM): 130 NaCl, 2.7 KCl, 1.5 KH2PO4, 1 CaCl2, 0.5 MgCl2, 10 Na-HEPES, 10 glucose (pH 7.3). The basolateral membrane was permeabilized with amphotericin B (250 μg/ml) for 30 min. In the apical solution 65 mM NaCl was replaced by sodium gluconate, and CaCl2 was increased to 2 mM. Solutions were bubbled with 95% O2/5% CO2 and maintained at 37° C. Current was recorded using a DVC-1000 voltage-clamp (World Precision Instruments) using Ag/AgCl electrodes and 1 M KCl agar bridges.
CFTR was stimulated by cAMP agonist forskolin and increasing concentration of test compounds was added.

[4] = HPLC/MS measurement of inhibitor concentration in urine after subcutaneous administration; format: in vivo, mouse; conditions: 4 times daily for 3 days, 5 mg/kg/day; for concentration at 1 h: 1 hour after final dosing; for concentration at 5 h: 5 hour after final dosing
Description: CFTR inhibitors (5-10 mg/kg/day) or saline DMSO vehicle control (0.05 mL/injection) were administrated by subcutaneous injection on the backs of neonatal mice four times a day for 3 or 7 days using a 1 cc insulin syringe, beginning at age 2 days (11 mice per group). Pkd1^flox/+; Ksp-Cre or Pkd1^flox/+ mice from the same litter were used as controls. During the treatment period, control and Pkd1^flox/−; Ksp-Cre mice, with or without CFTR inhibitor treatment, were indistinguishable in their activity and behavior. Body weight was measured at day 5 (3 days after treatment), at which time there was no difference in body weight in any of the mouse groups. Blood and urine samples were collected for measurements of CFTR inhibitor concentration and renal function. Kidneys were removed and weighed, and fixed for histological examination or homogenized for determination of CFTR inhibitor content.
For high-performance liquid chromatography/mass spectrometry (HPLC/MS) analysis of CFTR inhibitor concentration, kidneys were homogenized in 50-100 μl of PBS for 5 min using an EPPENDORF pellet pestle homogenizer. The homogenate was mixed with an equal volume of chilled acetonitrile to precipitate proteins. After centrifugation at 5000×g for 10 min the supernatant was evaporated under nitrogen, and the residue was dissolved in eluent (50% CH3CN/20 mM NH4OAc). Urine samples were directly diluted 10-fold with eluent. Reversed-phase HPLC separations were carried out using a WATERS C18 column (2.1×100 mm, 2.5 μm particle size) equipped with a solvent delivery system (WATERS model 2690, Milford, Mass.). The solvent system consisted of a linear gradient from 20% CH3CN/20 mM NH4OAc to 95% CH3CN/20 mM NH4OAc, run over 20 min, followed by 5 min at 95% CH3CN/20 mM NH4OAc (0.2 mL/min flow rate). Mass spectra were acquired on an Alliance HT 2790+ZQ mass spectrometer using negative ion detection, scanning from 150 to 1500 Da. The electrospray ion source parameters were: capillary voltage 3.2 kV (negative ion mode) or 3.5 kV (positive ion mode), cone voltage 37 V, source temperature 120° C., desolvation temperature 250° C., cone gas flow 25 L/h, and dessolvation gas flow 350 L/h.
Concentrations were measured to establish dosing to give sustained concentrations in kidney/urine of >1 μM, where CFTR is inhibited. Kidney and urine samples were obtained from mice after 4 times daily subcutaneous administration for 3 days at 5 mg/kg/day, a dose regimen determined from preliminary studies. Urinary concentrations were measured at 1 and 5 hour after the final dosing. For tetrazolo-CFTRinh-172, urine concentrations were 3.3 and 3.6 μM at 1 and 5 hour, respectively. The urine concentrations of Ph-GlyH-101 were 4.3 and 5.8 μM. […] These concentrations are several-fold greater than the IC50 for CFTR inhibition.

[5] = values in text, forskolin-stimulated CFTR, read-out: IC50 (short-circuit current)

Sequence of human wildtype CFTR (P13569 whole entry): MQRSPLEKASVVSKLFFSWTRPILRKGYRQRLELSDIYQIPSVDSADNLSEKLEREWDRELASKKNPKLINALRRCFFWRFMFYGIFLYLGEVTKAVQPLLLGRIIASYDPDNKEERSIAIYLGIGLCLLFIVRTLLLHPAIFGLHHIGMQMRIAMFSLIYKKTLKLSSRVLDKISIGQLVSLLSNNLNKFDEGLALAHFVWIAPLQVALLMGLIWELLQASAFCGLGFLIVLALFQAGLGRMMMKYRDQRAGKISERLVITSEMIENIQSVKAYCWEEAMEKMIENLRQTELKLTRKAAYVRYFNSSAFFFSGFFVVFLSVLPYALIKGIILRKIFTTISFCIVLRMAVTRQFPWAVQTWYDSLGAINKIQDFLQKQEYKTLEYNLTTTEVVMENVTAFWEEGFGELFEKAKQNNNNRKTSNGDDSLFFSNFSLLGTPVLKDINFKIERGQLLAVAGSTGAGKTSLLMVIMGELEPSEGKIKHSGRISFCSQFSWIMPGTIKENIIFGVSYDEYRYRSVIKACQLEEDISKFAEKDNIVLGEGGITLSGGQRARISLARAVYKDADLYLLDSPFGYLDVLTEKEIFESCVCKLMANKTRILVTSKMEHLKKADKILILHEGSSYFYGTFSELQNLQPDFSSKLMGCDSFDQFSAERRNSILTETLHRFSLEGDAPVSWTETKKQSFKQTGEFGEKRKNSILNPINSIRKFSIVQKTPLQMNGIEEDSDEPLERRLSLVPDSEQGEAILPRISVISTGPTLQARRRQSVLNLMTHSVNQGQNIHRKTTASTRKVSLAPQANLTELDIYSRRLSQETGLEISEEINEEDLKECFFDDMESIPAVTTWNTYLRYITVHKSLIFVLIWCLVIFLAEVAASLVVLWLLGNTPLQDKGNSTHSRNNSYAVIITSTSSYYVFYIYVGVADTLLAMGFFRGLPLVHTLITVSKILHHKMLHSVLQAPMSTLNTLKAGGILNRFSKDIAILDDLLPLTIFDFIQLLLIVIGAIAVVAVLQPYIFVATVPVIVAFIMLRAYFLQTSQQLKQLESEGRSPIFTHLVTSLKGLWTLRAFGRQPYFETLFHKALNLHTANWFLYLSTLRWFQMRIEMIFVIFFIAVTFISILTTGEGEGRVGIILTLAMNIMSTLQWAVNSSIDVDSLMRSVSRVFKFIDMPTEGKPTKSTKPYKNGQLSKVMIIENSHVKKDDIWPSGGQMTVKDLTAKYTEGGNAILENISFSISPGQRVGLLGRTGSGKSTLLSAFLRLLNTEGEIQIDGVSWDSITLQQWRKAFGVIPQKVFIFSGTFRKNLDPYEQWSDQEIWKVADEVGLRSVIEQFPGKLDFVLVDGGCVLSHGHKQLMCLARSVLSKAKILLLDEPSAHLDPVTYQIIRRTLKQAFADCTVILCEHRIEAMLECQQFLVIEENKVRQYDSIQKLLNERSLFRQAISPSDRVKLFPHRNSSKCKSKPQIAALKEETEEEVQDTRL
T1 sequence (Q5U820 whole entry): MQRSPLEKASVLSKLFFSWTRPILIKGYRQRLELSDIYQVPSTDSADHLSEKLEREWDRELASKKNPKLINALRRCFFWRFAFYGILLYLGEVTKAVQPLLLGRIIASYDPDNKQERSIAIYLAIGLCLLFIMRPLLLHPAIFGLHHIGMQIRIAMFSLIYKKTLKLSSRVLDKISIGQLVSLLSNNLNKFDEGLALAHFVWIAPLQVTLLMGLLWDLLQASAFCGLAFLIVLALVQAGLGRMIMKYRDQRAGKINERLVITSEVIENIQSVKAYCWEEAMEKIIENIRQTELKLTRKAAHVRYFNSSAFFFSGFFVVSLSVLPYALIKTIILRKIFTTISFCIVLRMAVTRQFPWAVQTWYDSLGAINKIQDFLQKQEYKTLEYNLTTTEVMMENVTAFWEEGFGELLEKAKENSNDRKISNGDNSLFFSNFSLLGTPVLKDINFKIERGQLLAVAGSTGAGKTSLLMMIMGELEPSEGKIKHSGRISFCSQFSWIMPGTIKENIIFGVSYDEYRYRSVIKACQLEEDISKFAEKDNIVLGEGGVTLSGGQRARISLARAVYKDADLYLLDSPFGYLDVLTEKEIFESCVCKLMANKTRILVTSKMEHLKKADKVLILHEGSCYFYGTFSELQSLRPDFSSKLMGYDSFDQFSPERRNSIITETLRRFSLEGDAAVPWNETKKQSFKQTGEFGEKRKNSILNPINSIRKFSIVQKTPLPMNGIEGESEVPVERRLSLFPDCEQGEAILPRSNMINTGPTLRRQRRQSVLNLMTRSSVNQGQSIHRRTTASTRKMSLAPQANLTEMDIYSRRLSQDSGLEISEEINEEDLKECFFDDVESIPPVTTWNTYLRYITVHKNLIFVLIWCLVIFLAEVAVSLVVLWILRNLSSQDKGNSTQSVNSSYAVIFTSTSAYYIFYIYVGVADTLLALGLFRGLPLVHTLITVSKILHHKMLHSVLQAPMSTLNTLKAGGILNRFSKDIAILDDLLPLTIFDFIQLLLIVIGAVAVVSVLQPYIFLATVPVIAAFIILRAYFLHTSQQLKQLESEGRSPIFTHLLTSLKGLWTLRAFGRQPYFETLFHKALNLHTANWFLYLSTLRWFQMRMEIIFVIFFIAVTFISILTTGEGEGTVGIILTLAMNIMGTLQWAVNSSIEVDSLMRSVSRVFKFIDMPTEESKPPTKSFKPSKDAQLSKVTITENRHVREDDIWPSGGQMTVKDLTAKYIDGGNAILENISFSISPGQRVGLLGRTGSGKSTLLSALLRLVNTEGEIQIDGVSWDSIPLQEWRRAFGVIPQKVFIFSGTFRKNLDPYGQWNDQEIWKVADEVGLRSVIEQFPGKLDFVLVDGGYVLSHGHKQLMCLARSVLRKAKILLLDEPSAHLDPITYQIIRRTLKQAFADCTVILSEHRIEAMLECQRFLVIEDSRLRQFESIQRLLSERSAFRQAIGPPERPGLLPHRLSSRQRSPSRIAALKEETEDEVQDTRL

O=C1/C(=C/c2ccc(-c3nnn[nH]3)cc2)SC(=S)N1c1cccc(C(F)(F)F)c1 [Compound 6, (Z)-5-(4-(1H-tetrazol-5-yl)benzylidene)-2-thioxo-3-(3-(trifluoromethyl)phenyl)thiazolidin-4-one]
cyst formation in embryonic kidneys (in words) ([1]; listed as T08): remarkably reduced cyst formation; also recorded: reduced the number and size of cysts | CFTR expression, short-circuit current after incubation (in words) [2]: did not alter CFTR expression | IC50 ([3]; Table 3, inhibition potency, read-out: IC50): 0.76 ± 0.2 µM | inhibition kinetics (in words) ([3]; compared with CFTRinh-172 or Oxo-172, listed as Tetrazolo-172): slower inhibition kinetics | inhibition of CFTR in short-circuit current analysis (in words) ([3]; increasing concentration, forskolin-stimulated): dose dependant inhibition | IC50 [3, 5]: 0.8 µM

O=C1/C(=C/c2ccc(-c3nn[nH]n3)cc2)SC(=S)N1c1cccc(C(F)(F)F)c1 [Compound 6, (Z)-5-(4-(1H-tetrazol-5-yl)benzylidene)-2-thioxo-3-(3-(trifluoromethyl)phenyl)thiazolidin-4-one]
concentration at 1 h ([4]; C57BL/6, mouse, urine, sc): 3.3 µM | concentration at 5 h ([4]; C57BL/6, mouse, urine, sc): 3.6 µM | kidney length after 4 days in culture [1]: 7.4±0.5 mm | IC50 [2]: ~1 µM | IC50 [3, 5]: 0.5 to 1 µM

N-2-naphthalenyl-2-hydroxyethyl-[(3,5-dibromo-2,4-dihydroxyphenyl)methylene]phenylglycinehydrazide [Compound G07]
concentration at 1 h [4]: 4.3 µM | concentration at 5 h [4]: 5.8 µM | cyst formation in embryonic kidneys (in words) [1]: remarkably reduced cyst formation; also recorded: reduced the number and size of cysts | kidney length after 4 days in culture [1]: 7.1±0.4 mm | CFTR expression, short-circuit current after incubation (in words) [2]: did not alter CFTR expression | IC50 [2]: ~1 µM

From patent US20110105565A1, “WATER SOLUBLE SMALL MOLECULE INHIBITORS OF THE CYSTIC FIBROSIS TRANSMEMBRANE CONDUCTANCE REGULATOR” (THE REGENTS OF THE UNIVERSITY OF CALIFORNIA, priority 2008, published 2011)
